Ends that are not written are not given here.
Tests used:
PK-1 cells [1] = assay: MTT cell-growth assay for evaluation of inhibitory peptides; format: cell-based, Human; conditions: FIG. 4
PK-1 cells [2] = assay: Flow cytometric analysis of sub-G1 fraction (propidium iodide); format: cell-based, Human; conditions: 40 μM, 12 hr, FIG. 7
Procedure: PK-1 cell was maintained as described before (RPMI with 10% FBS). The cells were incubated with or without negative control (40 μM as a final concentration) or C1958VIVIT (10, 20, and 40 μM) peptide for 12 hr. After the incubation, cells were detached by trypsin and collected to tubes and washed with PBS for 3 times. Then the cells were fixed with 67% ethanol for 30 min at room temperature (RT), washed with PBS once, and treated with RNase (2 mg/ml in PBS) for 30 min at RT. Finally the cell nuclei were stained with propidium iodide (PI) for 30 min at RT. Flow cytometric analysis was done with FACS calibur (BD).

[3] = parameters: species or system mice (BALB/cA Jcl-nu); conditions: mouse, in vivo, 9 mg/kg/day
Procedure: In vivo experiments were performed in our animal facility in accordance with institutional guidelines. A 0.1-ml aliquot of suspended PK-1 cells (5×10^6 cells) was injected subcutaneously into the flanks of six-week-old female athymic mice (BALB/cA Jcl-nu). Tumor volumes were determined using the formula: 0.52×(larger diameter)×(smaller diameter)×(depth). When the xenograft reached to 100 mm^3 in size, animals were randomly divided into two or three groups and received intratumoral or intravenous injection of 180 μg of 11R-C1958VIVIT, 11R-VEET, or PBS for 21 consecutive days. Tumor growth was assessed by calculating the ratio of tumor volume on the indicated day to the volume calculated on the initiation of treatment.

RRRRRRRRRRR-GGG-KHLDVPDIIITPPTPT [11R-C1958]
inhibition of growth of the cells (MTT assay) (PK-1 cells [1]; peptide 25 μM): neither 11R—C1958 (25 μM) nor 11R-VEET (40 μM) peptides, significantly inhibited the growth of the cells

RRRRRRRRRRR-GGG-MAGPPHIVEETGPHVI (RRRRRRRRRRRGGGMAGPPHIVEETGPHVI; Artificially synthesized peptide for inhibition of the interaction of C1958 and PPP3CA as control) [11R-VEET, 10, reference compound]
sub-G1 fraction of the treated cells (PK-1 cells [2]): did not affect
inhibition of growth of the cells (MTT assay) (PK-1 cells [1]; peptide 40 μM): neither 11R—C1958 (25 μM) nor 11R-VEET (40 μM) peptides, significantly inhibited the growth of the cells

RRRRRRRRRRRGGGKHLDVPVIVITPPTPT [11R-C1958VIVIT, RRRRRRRRRRR-GGG-KHLDVPVIVITPPTPT]
apparent negative effects on mice conditions [3]: nor apparent negative effects on mice conditions were observed

Reference: US20090215666A1, “VIVIT POLYPEPTIDES, THERAPEUTIC AGENT COMPRISING THE SAME, AND METHOD OF SCREENING FOR ANTI-CANCER AGENT” (Oncotherapy Science, Inc., priority 2005, published 2009)
